Measured values taken from patent US11634447B2 (priority 2012, dated 2023).
Values joined by “and” are separate entries in the source; they are usually repeats but may differ in a detail not shown here. Equal values may be shown once.

How the values were obtained:
[1] = target: T1, FimH-CRD (Escherichia coli, UniProt P08191); test: Competitive binding assay by fluorescence polarization, assay 2 (compounds prepared by a robotics system, plates frozen and thawed); design: species or system E. coli; conditions: Assay 2 Kd, 5 nM Alexa 647 mannoside probe, 60 nM FimH-CRD, replicate values in one cell
T1 construct: The first 177 amino acids of the FimH protein are expressed as a fusion protein; thrombin tag (printed as 'fusion protein with thrombin') (cleaved yes); made in house; host or cells: bacteria (pET21b plasmid)
Description: The first 177 amino acids of the FimH protein are expressed as a fusion protein with thrombin in a pET21b plasmid in bacteria. This FimH protein sequence contains the carbohydrate recognition domain (CRD) and shall be termed FimH-CRD. Following bacterial expression of the protein, the FimH-CRD protein is purified to homogeneity and the thrombin tag removed by protease cleavage. A competitive binding assay by fluorescence polarization is performed using 5 nM of the Alexa 647 mannoside probe and 60 nM of the FimH-CRD. The samples are assayed in a low volume 384 well microtiter plate in a final volume of 20 μl. The final assay buffer conditions are the following, 50 mM Tris-Cl, ph 7.0, 100 mM NaCl, 1 mM EDTA, 5 mM β-mercaptoethanol, 0.05% BSA and 2.5% DMSO. Two assays are performed for FimH, termed assay 1 or assay 2. The assay conditions are the same for both assays except the following: assay 1 has compounds prepared by manual dilution in a serial dilution factor with 12-point dose response while assay 2 has compounds prepared by a robotics system also through a serial dilution factor (12 point dose response) and initially prepared in duplicate in 384 well-Corning polypropylene round bottom plates. The assay 2 plates have compound which is then frozen and must be thawed prior to use. Initially the Alexa 647 probe and the FimH-CRD are added to the assay buffer and then 0.5 μl of test compound (assay 1 or 2) between 0.4 nM to 75 μM final concentration are added (12 point titration with 3-fold serial dilution). Control wells for the Alexa 647 probe are prepared with the same conditions except for the addition of the FimH-CRD protein. Plates are then incubated for 5 hrs at room temperature in the dark and under humid conditions to prevent drying. Plates are read using the SpectraMax Paradigm multi-mode plate reader and the appropriate fluorescent polarization detection cartridge (Alexa-647).
Alexa 647 mannoside probe is prepared using the similar procedure reported for FAM mannoside (Han, Z. et. al., 2010, J. Med. Chem., 53, 4779) and is described in the scheme below.
To a blue colored stirred solution of (2S,3S,4S,5S,6R)-2-(4-aminobutoxy)-6-(hydroxymethyl)tetrahydropyran-3,4,5-triol (2.21 mg, 0.009 mmol) and the (2E)-2-[(2E,4E)-5-[3,3-dimethyl-5-sulfonato-1-(3-sulfonatopropyl)indol-1-ium-2-yl]penta-2,4-dienylidene]-3-[6-(2,5-dioxopyrrolidin-1-yl)oxy-6-oxo-hexyl]-3-methyl-1-(3-sulfonatopropyl)indoline-5-sulfonate (Potassium Ion (3)) (4.9 mg, 0.0044 mmol) in DMF (44 μL) is added Et3N (5.4 mg, 7.0 μL, 0.053 mmol) at RT. The solution is stirred at room temperature over night, concentrated, dissolved in water and purified on 12 g C-18 silica gel cartridge on Isolera system using acetonitrile in water (0 to 40%, 10 CV) and followed by lyophilization to afford Alexa 647 mannoside probe (3.3 mg, 34%) as deep blue solid.
The Kd values of the compounds are determined from dose response curves using twelve concentrations per compound in duplicate. Curves are fitted to data points using Fluorescence Polarization competitive displacement analysis, and Kds are interpolated from the resulting curves using GraphPad Prism software, version […] (GraphPad software Inc., San Diego, Calif., USA).

[2] = system: bacterial strain LF82 binding to the glycoprotein BSA-(Mannose)3; test: Bacterial Binding Assay (BBA); format: cell-based, Escherichia coli; conditions: read-out: Bacterial Binding Assay IC50, LF82/Luciferase strain binding to BSA-(Man)3 coated plates, luminescence
Outline: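 Inhibition of LF82/luciferase E. coli adhesion is read as luminescence after washing off unbound cells. Compound and bacteria (10^7 per well) are co-incubated 40-75 min at room temperature on wells coated with 0.5-2 μg/mL BSA-(Man)3, with BSA-only wells as background; IC50 values derived.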

[3] = target: T1, FimH-CRD; test: Competitive binding assay by fluorescence polarization, assay 1 (compounds prepared by manual dilution); design: species or system E. coli
Outline: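 FimH-CRD (residues 1-177, tag removed) at 60 nM competed against 5 nM Alexa 647 mannoside probe in 50 mM Tris-Cl pH 7.0, 100 mM NaCl, 1 mM EDTA, 5 mM β-mercaptoethanol, 0.05% BSA, 2.5% DMSO; 5 h, room temperature, dark. Compounds 0.4 nM-75 μM final, 12-point 3-fold, duplicate; Kd from fluorescence polarization displacement curves. Assay 1: manual dilution; assay 2: robotic dilution, plates frozen/thawed.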

[4] = Assay 1 Kd, 5 nM Alexa 647 mannoside probe, 60 nM FimH-CRD, replicate values in one cell
[5] = read-out: Assay 1 Kd, 5 nM Alexa 647 mannoside probe, 60 nM FimH-CRD, replicate values in one cell

T1 sequence (P08191 22-177): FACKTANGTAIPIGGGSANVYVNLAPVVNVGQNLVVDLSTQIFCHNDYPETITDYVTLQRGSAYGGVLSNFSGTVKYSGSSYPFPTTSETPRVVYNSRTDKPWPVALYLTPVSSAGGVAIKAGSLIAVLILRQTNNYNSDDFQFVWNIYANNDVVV

Row | SMILES | Kd [1] | IC50 [2] | Kd [3, 4] | Kd [3, 5]
1 | OC[C@H]1O[C@H](c2ccc(-c3ccc([C@H]4O[C@H](CO)[C@@H](O)[C@H](O)[C@@H]4O)cc3)cc2)[C@@H](O)[C@@H](O)[C@@H]1O [Compound 6, (2R,2 ,3S,3,4R,4,5S,5,6R,6)-6,6([1,1Biphenyl]-4,4diyl)bis(2-(hydroxymethyl)tetrahydro-2H-pyran-3,4,5-triol)] | < 0.005 µM and 0.023 µM | 0.095 µM | < 0.005 µM | < 0.005 µM
2 | O=C(NCCCCCCCCNC(=O)c1cccc([C@H]2O[C@H](CO)[C@@H](O)[C@H](O)[C@@H]2O)c1)c1cccc([C@H]2O[C@H](CO)[C@@H](O)[C@H](O)[C@@H]2O)c1 [Compound 14, (R,R,S,R,S)-N,N′-(Octane-1,8-diyl)bis(3-((2R,3S,4R,5S,6R)-3,4,5-trihydroxy-6-(hydroxymethyl)tetrahydro-2H-pyran-2-yl)benzamide)] | 0.043 µM and 0.006 µM and 0.014 µM | 4.1 µM | 0.011 µM and 0.013 µM | –
3 | O=C(Nc1ccc(Cc2ccc(NC(=O)c3cccc([C@H]4O[C@H](CO)[C@@H](O)[C@H](O)[C@@H]4O)c3)cc2)cc1)c1cccc([C@H]2O[C@H](CO)[C@@H](O)[C@H](O)[C@@H]2O)c1 [Compound 16] | 0.026 µM and < 0.005 µM and 0.009 µM | 1.51 µM | < 0.005 µM and 0.006 µM | –
4 | OC[C@H]1O[C@H](CCc2ccc(CC[C@H]3O[C@H](CO)[C@@H](O)[C@H](O)[C@@H]3O)cc2)[C@@H](O)[C@@H](O)[C@@H]1O [Compound 22, ((2R,3S,4R,5S,6R)-2-(Hydroxymethyl)-6-[2-[4-[2-[(2R,3S,4R,5S,6R)-3,4,5-trihydroxy-6-(hydroxymethyl)tetrahydropyran-2-yl]ethyl]phenyl]ethyl]tetrahydropyran-3,4,5-triol)] | 0.014 µM and < 0.005 µM and 0.011 µM | 1.6 µM | < 0.005 µM and 0.012 µM | –
5 | OC[C@H]1O[C@H](CCCC[C@H]2O[C@H](CO)[C@@H](O)[C@H](O)[C@@H]2O)[C@@H](O)[C@@H](O)[C@@H]1O [Compound 23] | 0.025 µM and < 0.005 µM and 0.014 µM | 5.8 µM | 0.009 µM and 0.012 µM | –
6 | OC[C@H]1O[C@H](C/C=C/c2cccc(/C=C/C[C@H]3O[C@H](CO)[C@@H](O)[C@H](O)[C@@H]3O)c2)[C@@H](O)[C@@H](O)[C@@H]1O [Compound 25, ((2R,3S,4R,5S,6R)-2-(Hydroxymethyl)-6-[(E)-3-[3-[(E)-3-[(2R,3S,4R,5S,6R)-3,4,5-trihydroxy-6-(hydroxymethyl)tetrahydropyran-2-yl]prop-1-enyl]phenyl]allyl]tetrahydropyran-3,4,5-triol)] | 0.021 µM and 0.01 µM and 0.012 µM | 1.4 µM | < 0.005 µM | < 0.005 µM
7 | OC[C@H]1O[C@H](CCc2cccc([C@H]3O[C@H](CO)[C@@H](O)[C@H](O)[C@@H]3O)c2)[C@@H](O)[C@@H](O)[C@@H]1O [Compound 37, ((2R,3S,4R,5S,6R)-2-(Hydroxymethyl)-6-[2-[3-[(2R,3S,4R,5S,6R)-3,4,5-trihydroxy-6-(hydroxymethyl)tetrahydropyran-2-yl]phenyl]ethyl]tetrahydropyran-3,4,5-triol)] | 0.018 µM and < 0.005 µM and 0.012 µM | 1.65 µM | 0.007 µM | –
8 | OC[C@H]1O[C@H](CCCc2ccc(CCC[C@H]3O[C@H](CO)[C@@H](O)[C@H](O)[C@@H]3O)cc2)[C@@H](O)[C@@H](O)[C@@H]1O [Compound 38, (2R,3S,4R,5S,6R)-2-(hydroxymethyl)-6-[3-[4-[3-[(2R,3S,4R,5S,6R)-3,4,5-trihydroxy-6-(hydroxymethyl)tetrahydropyran-2-yl]propyl]phenyl]propyl]tetrahydropyran-3,4,5-triol] | < 5 nM (2×) and 21 nM | 0.41 µM | < 0.005 µM | < 0.005 µM
9 | OC[C@H]1O[C@H](C/C=C/c2cccc(C#C[C@H]3O[C@H](CO)[C@@H](O)[C@H](O)[C@@H]3O)c2)[C@@H](O)[C@@H](O)[C@@H]1O [Compound 40, ((2R,3S,4R,5S,6R)-2-(Hydroxymethyl)-6-[(E)-3-[3-[2-[(2R,3S,4R,5S,6R)-3,4,5-trihydroxy-6-(hydroxymethyl)tetrahydropyran-2-yl]ethynyl]phenyl]allyl]tetrahydropyran-3,4,5-triol)] | 0.008 µM and 0.01 µM | 0.043 µM | < 0.005 µM and 0.018 µM | –
10 | OC[C@H]1O[C@H](c2cccc(OCCCOc3cccc([C@H]4O[C@H](CO)[C@@H](O)[C@H](O)[C@@H]4O)c3)c2)[C@@H](O)[C@@H](O)[C@@H]1O [Compound 44, ((2R,3S,4R,5S,6R)-2-(Hydroxymethyl)-6-[3-[3-[3-[(2R,3S,4R,5S,6R)-3,4,5-trihydroxy-6-(hydroxymethyl)tetrahydropyran-2-yl]phenoxy]propoxy]phenyl]tetrahydropyran-3,4,5-triol)] | 0.006 µM | 0.48 µM | < 0.005 µM | < 0.005 µM
